US8778935B2 (Centro Nacional de Investigaciones Oncologicas (CNIO), priority 2009, dated 2014)
Where two headings read alike, the source gives them in different places.

Molecular target: T1, PI3K (p110α/p85α) (Homo sapiens, UniProt P42336)
T1 construct: purchased Carna Biosciences 07CBS-0402A
Assay: PI3K Activity Assay (ADP Hunter Plus)
Assay type: biochemical
Description: The kinase activity was measured by using the commercial ADP Hunter™ Plus assay available from DiscoveRx (#33-016), which is a homogeneous assay to measure the accumulation of ADP, a universal product of kinase activity. […] Reaction was carried out for 1 hour at 25° C. Reagent A and B were sequentially added to the wells and plates were incubated for 30 min at 37° C. […] Values were normalized against the control activity included for each enzyme (i.e., 100% PI3 kinase activity, without compound). These values were plot against the inhibitor concentration and were fit to a sigmoid dose-response curve by using the Graphad software.

[1] = quantitative results, read-out: PI3Kα IC50
[2] = semi-quantitative results, read-out: PI3Kα IC50 (semi-quantitative class)
[3] = quantitative results of Table 4, read-out: PI3Kα IC50

T1 sequence (P42336 whole entry): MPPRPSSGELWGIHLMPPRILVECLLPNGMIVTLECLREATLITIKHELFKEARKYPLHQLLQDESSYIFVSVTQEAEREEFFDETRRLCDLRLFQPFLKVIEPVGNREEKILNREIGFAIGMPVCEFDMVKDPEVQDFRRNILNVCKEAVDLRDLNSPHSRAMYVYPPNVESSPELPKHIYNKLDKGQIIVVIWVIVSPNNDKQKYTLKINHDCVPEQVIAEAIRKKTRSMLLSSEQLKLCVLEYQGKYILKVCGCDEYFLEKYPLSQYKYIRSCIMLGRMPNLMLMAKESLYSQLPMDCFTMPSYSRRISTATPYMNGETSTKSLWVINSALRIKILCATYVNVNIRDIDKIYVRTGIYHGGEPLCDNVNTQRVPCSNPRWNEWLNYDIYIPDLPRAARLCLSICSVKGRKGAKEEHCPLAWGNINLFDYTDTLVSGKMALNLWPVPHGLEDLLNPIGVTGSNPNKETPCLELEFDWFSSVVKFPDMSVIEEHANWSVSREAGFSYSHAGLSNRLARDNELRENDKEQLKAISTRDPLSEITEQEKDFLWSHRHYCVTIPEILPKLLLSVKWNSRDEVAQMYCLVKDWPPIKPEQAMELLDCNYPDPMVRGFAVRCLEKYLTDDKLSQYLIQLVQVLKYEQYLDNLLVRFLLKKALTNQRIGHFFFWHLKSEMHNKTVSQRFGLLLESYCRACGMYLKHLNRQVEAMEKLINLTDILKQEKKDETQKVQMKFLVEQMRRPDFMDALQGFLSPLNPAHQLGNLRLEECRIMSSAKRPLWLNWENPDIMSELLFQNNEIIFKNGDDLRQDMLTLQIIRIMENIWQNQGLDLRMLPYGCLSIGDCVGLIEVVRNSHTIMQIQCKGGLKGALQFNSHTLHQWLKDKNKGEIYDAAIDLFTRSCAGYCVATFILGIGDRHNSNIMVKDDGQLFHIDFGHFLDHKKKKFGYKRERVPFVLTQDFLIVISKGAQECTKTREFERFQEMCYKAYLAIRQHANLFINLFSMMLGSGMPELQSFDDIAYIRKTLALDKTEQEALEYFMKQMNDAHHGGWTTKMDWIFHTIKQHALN
T1 sequence (P27986 whole entry partner): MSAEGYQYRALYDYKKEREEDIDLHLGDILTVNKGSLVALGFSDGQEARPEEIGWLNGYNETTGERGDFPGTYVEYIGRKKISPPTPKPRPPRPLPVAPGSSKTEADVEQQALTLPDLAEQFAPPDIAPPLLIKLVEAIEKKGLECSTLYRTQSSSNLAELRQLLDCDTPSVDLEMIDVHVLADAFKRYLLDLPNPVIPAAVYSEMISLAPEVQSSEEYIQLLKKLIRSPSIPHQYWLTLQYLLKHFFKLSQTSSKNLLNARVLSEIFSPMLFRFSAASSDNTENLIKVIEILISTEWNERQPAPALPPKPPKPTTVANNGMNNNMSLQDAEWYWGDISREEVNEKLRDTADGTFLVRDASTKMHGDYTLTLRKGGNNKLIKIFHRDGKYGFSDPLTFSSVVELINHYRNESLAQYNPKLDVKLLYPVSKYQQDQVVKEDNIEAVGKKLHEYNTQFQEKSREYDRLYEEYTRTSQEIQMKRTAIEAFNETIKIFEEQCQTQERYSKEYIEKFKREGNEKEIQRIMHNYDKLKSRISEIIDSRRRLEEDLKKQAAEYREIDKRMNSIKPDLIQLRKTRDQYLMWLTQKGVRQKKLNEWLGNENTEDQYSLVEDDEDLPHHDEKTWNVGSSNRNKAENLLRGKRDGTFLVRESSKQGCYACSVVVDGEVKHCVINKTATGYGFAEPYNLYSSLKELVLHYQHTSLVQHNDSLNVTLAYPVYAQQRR

Structure (SMILES)	IC50 [1] [nM]	IC50 [2] [nM]	IC50 [3] [nM]
O=C(O)c1cn2cc(-c3cccc(O)c3)nc(N3CCOCC3)c2n1 [2-02, 6-(3-hydroxyphenyl)-8-morpholinoimidazo[1,2-a]pyrazine-2-carboxylic acid]	19000		
O=Cc1cn2cc(-c3cccc(O)c3)nc(N3CCOCC3)c2n1 [2-03, 6-(3-hydroxyphenyl)-8-morpholinoimidazo[1,2-a]pyrazine-2-carbaldehyde]	10000		
OCc1cn2cc(-c3cccc(O)c3)nc(N3CCOCC3)c2n1 [2-04, 3-(2-(hydroxymethyl)-8-morpholinoimidazo[1,2-a]pyrazin-6-yl)phenol]	639	100 to 1000	
CC(C)(C)OC(=O)N1CCN(Cc2cn3cc(-c4cccc(O)c4)nc(N4CCOCC4)c3n2)CC1 [2-05, tert-butyl 4-((6-(3-hydroxyphenyl)-8-morpholinoimidazo[1,2-a]pyrazin-2-yl)methyl)-piperazine-1-carboxylate]	476		
CC(=O)N1CCN(Cc2cn3cc(-c4cccc(O)c4)nc(N4CCOCC4)c3n2)CC1 [2-06, 1-(4-((6-(3-hydroxyphenyl)-8-morpholinoimidazo[1,2-a]pyrazin-2-yl)methyl)-piperazin-1-yl)ethanone]	451	100 to 1000	
CN1CCN(Cc2cn3cc(-c4cccc(O)c4)nc(N4CCOCC4)c3n2)CC1 [2-07, 3-(2a-((4-methylpiperazin-1-yl)methyl)-8-morpholinoimidazo[1,2-a]pyrazin-6-yl)phenol]	27000		
O=C1CN(Cc2cn3cc(-c4cccc(O)c4)nc(N4CCOCC4)c3n2)CCN1 [2-08, 4-((6-(3-hydroxyphenyl)-8-morpholinoimidazo[1,2-a]pyrazin-2-yl)methyl)piperazin-2-one]	540	100 to 1000	
Oc1cccc(-c2cn3cc(CN4CCOCC4)nc3c(N3CCOCC3)n2)c1 [2-09, 3-(8-morpholino-2-(morpholinomethyl)imidazo[1,2-a]pyrazin-6-yl)phenol]	444	100 to 1000	
CS(=O)(=O)N1CCN(C(=O)c2cn3cc(-c4cccc(O)c4)nc(N4CCOCC4)c3n2)CC1 [2-11, (6-(3-hydroxyphenyl)-8-morpholinoimidazo[1,2-a]pyrazin-2-yl)(4-sulfonylmethyl-piperazin-1-yl)methanone]	44		
Oc1cccc(-c2cn3cc(C4CC4)nc3c(N3CCOCC3)n2)c1 [2-14, 3-(2-cyclopropyl-8-morpholinoimidazo[1,2-a]pyrazin-6-yl)phenol]	340	100 to 1000	
CN1CCN(C(=O)c2cn3cc(-c4cccc5[nH]ncc45)nc(N4CCOCC4)c3n2)CC1 [2-15, (6-(1H-indazol-4-yl)-8-morpholinoimidazo[1,2-a]pyrazin-2-yl)(4-methylpiperazin-1-yl)methanone]	741	100 to 1000	
c1cc(-c2cn3cc(C4CC4)nc3c(N3CCOCC3)n2)c2cn[nH]c2c1 [2-19, 2-cyclopropyl-6-(1H-indazol-4-yl)-8-morpholinoimidazo[1,2-a]pyrazine]	438		
FC(F)(F)c1cn2cc(-c3cccc4[nH]ncc34)nc(N3CCOCC3)c2n1 [2-20, 2-(trifluoromethyl)-6-(1H-indazol-4-yl)-8-morpholinoimidazo[1,2-a]pyrazine]	1800		
N#Cc1cn2cc(-c3cccc4[nH]ncc34)nc(N3CCOCC3)c2n1 [2-22, 6-(1H-indazol-4-yl)-8-morpholinoimidazo[1,2-a]pyrazine-2-carbonitrile]	618	100 to 1000	
Cc1cn2cc(-c3cccc(O)c3)nc(N3CCOCC3)c2n1 [2-23, 3-(2-methyl-8-morpholinoimidazo[1,2-a]pyrazin-6-yl)phenol]	96	< 100	
Cc1cn2cc(-c3cccc4[nH]ncc34)nc(N3CCOCC3)c2n1 [2-24, 6-(1H-indazol-4-yl)-2-methyl-8-morpholinoimidazo[1,2-a]pyrazine]	2600	> 1000	
Cc1cn2cc(-c3cccnc3)nc(N3CCOCC3)c2n1 [2-26, 2-methyl-8-morpholino-6-(pyridin-3-yl)imidazo[1,2-a]pyrazine]	10000		
COc1cncc(-c2cn3cc(C)nc3c(N3CCOCC3)n2)c1 [2-27, 6-(5-methoxypyridin-3-yl)-2-methyl-8-morpholinoimidazo[1,2-a]pyrazine]	3900	> 1000	
Cc1cn2cc(-c3cccc(NS(C)(=O)=O)c3)nc(N3CCOCC3)c2n1 [2-28]	50000		
CNC(=O)Nc1ccc(-c2cn3cc(C)nc3c(N3CCOCC3)n2)cc1 [2-29, 1-methyl-3-(4-(2-methyl-8-morpholinoimidazo[1,2-a]pyrazin-6-yl)phenyl)urea]	3000		
Cc1cn2cc(-c3cncc(O)c3)nc(N3CCOCC3)c2n1 [2-30, 5-(2-methyl-8-morpholinoimidazo[1,2-a]pyrazin-6-yl)pyridin-3-ol]	235	100 to 1000	
Cc1cn2cc(-c3ccncc3)nc(N3CCOCC3)c2n1 [2-31, 2-methyl-8-morpholino-6-(pyridin-4-yl)imidazo[1,2-a]pyrazine]	10000		
CN1CCN(c2cnc3c(N4CCOCC4)nc(-c4cccc(O)c4)cn23)CC1 [2-37, 3-(3-(4-methylpiperazin-1-yl)-8-morpholinoimidazo[1,2-a]pyrazin-6-yl)phenol]		100 to 1000	
CN1CCN(c2cnc3c(N4CCOCC4)nc(-c4cccc5[nH]ncc45)cn23)CC1 [2-38, 6-(1H-indazol-4-yl)-3-(4-methylpiperazin-1-yl)-8-morpholinoimidazo[1,2-a]-pyrazine]		100 to 1000	

Structure (SMILES)	IC50 [1] [nM]	IC50 [2] [nM]	IC50 [3] [nM]
Oc1cccc(-c2cn3c(N4CCNCC4)cnc3c(N3CCOCC3)n2)c1 [2-40, 3-(8-morpholino-3-(piperazin-1-yl)imidazo[1,2-a]pyrazin-6-yl)phenol]		100 to 1000	
CS(=O)(=O)N1CCN(c2cnc3c(N4CCOCC4)nc(-c4cccc5[nH]ncc45)cn23)CC1 [2-41, 6-(1H-indazol-4-yl)-3-(4-sulfonylmethylpiperazin-1-yl)-8-morpholinoimidazo[1,2-a]pyrazine]		100 to 1000	
Cc1nc2c(N3CCOCC3)nc(-c3cccc4[nH]ncc34)cn2c1C1=CCNCC1 [2-44, 3-(1,2,3,6-tetrahydropyridin-4-yl)-6-(1H-indazol-4-yl)-2-methyl-8-morpholino-imidazo[1,2-a]pyrazine]	731	100 to 1000	
Cc1cn2c(Cl)c(-c3cccc(O)c3)nc(N3CCOCC3)c2n1 [2-49, 3-(5-chloro-2-methyl-8-morpholinoimidazo[1,2-a]pyrazin-6-yl)phenol]		100 to 1000	
CCOC(=O)c1cn2cc(-c3cccc4[nH]ncc34)nc(N3CCOCC3)c2n1 [2-52, ethyl 6-(1H-indazol-4-yl)-8-morpholinoimidazo[1,2-a]pyrazine-2-carboxylate]	676		
Cc1cn2c(Cl)c(-c3cccc4[nH]ncc34)nc(N3CCOCC3)c2n1 [2-54, 5-chloro-6-(1H-indazol-4-yl)-2-methyl-8-morpholinoimidazo[1,2-a]pyrazine]	266	100 to 1000	
Cc1cn2c(Br)c(-c3cccc4[nH]ncc34)nc(N3CCOCC3)c2n1 [2-55, 5-bromo-6-(1H-indazol-4-yl)-2-methyl-8-morpholinoimidazo[1,2-a]pyrazine]	12000		
Cc1cn2c(I)c(-c3cccnc3)nc(N3CCOCC3)c2n1 [2-56, 5-iodo-2-methyl-8-morpholino-6-(pyridin-3-yl)imidazo[1,2-a]pyrazine]	253		
Cc1nc2c(N3CCOCC3)nc(-c3cccc4[nH]ncc34)cn2c1C1CCNCC1 [2-57, 6-(1H-indazol-4-yl)-2-methyl-8-morpholino-3-(piperidin-4-yl)imidazo[1,2-a]-pyrazine]	144	100 to 1000	
Cc1nc2c(N3CCOCC3)nc(-c3cccc4[nH]ncc34)cn2c1C1CCN(C)CC1 [2-58, 6-(1H-indazol-4-yl)-2-methyl-3-(1-methylpiperidin-4-yl)-8-morpholinoimidazo[1,2-a]pyrazine]		100 to 1000	
CS(=O)(=O)N1CCN(Cc2cn3c(Cl)c(-c4cccc5[nH]ncc45)nc(N4CCOCC4)c3n2)CC1 [2-60, 5-chloro-6-(1H-indazol-4-yl)-8-morpholino-2-((4-sulfonylmethylpiperazin-1-yl)-methyl)imidazo[1,2-a]pyrazine]		100 to 1000	
Cc1nc2c(N3CCOCC3)nc(-c3cccc4[nH]ncc34)cn2c1C(=O)NC1CCNCC1 [2-64, 6-(1H-indazol-4-yl)-2-methyl-8-morpholino-N-(piperidin-4-yl)imidazo[1,2-a]-pyrazine-3-carboxamide]		> 1000	
CS(=O)(=O)N1CCN(Cc2cn3cc(-c4ccc(C(N)=O)cc4)nc(N4CCOCC4)c3n2)CC1 [2-68]	11000		
CC(=O)Nc1ccc(-c2cn3cc(CN4CCN(S(C)(=O)=O)CC4)nc3c(N3CCOCC3)n2)cn1 [2-81]	210		
CS(=O)(=O)N1CCN(Cc2cn3cc(-c4cnc(N)c(C(F)(F)F)c4)nc(N4CCOCC4)c3n2)CC1 [2-83]	210		
CN(C)C(=O)c1cn2cc(-c3cccc4[nH]ncc34)nc(N3CCOCC3)c2n1 [2-86]			891
O=C(c1cn2cc(-c3cccc4[nH]ncc34)nc(N3CCOCC3)c2n1)N1CCCC1 [2-87]			355
CS(=O)(=O)N1CCN(Cc2cn3cc(-c4ccc(N)cc4)nc(N4CCOCC4)c3n2)CC1 [2-89]			33000
CS(=O)(=O)N1CCN(Cc2cn3cc(-c4cn[nH]c4)nc(N4CCOCC4)c3n2)CC1 [2-90]			6000
NC(=O)c1cn2cc(-c3ccncc3)nc(N3CCOCC3)c2n1 [2-91]			3900
NC(=O)c1cn2cc(-c3cccc4[nH]ccc34)nc(N3CCOCC3)c2n1 [2-94]			944
NC(=O)c1cn2cc(-c3c(F)ccc4[nH]ccc34)nc(N3CCOCC3)c2n1 [2-95]			891
CC(C)(C)OC(=O)N1CCC2(CCN(Cc3cn4cc(-c5cccc6[nH]ncc56)nc(N5CCOCC5)c4n3)CC2)C1 [2-97]			4500
